The values that follow come from patent US9258995B2, “Organ cold storage composition and methods of use” (BOARD OF TRUSTEES OF THE UNIVERSITY OF ARKANSAS, priority 2009, dated 2016).

Series [1] concerns rat kidneys. Description: MitoSOX Red mitochondrial superoxide generation, cold storage ex vivo model. Here is the method: (§1) All animals were treated according to the National Institutes of Health Guide for the Care and Use of Laboratory Animals and the University of Arkansas for Medical Sciences Institutional Animal Care and Use Committee guidelines. Male Fischer 344 inbred rats (Charles Rivers Laboratories, Inc., Wilmington, Mass.) weighing between 250 and 300 g were anesthetized with ethrane, followed by shaving and prepping with betadine. […] Bulldog clamps were placed on the aorta and vena cava (proximal and distal to the renal vessels) to prevent blood flow to the kidneys. A 22-gauge surgical needle was used to puncture the rat's aorta to flush the renal grafts with saline (10 ml per kidney) using a small catheter. Once the kidneys started to turn light brown (perfusion), another vent was formed in the vena cava to allow blood flow from the kidneys. Once both kidneys were completely flushed, the right kidney was recovered and served as a control (group 1), and the left kidney was exposed to CS alone for 4 h at 4° C. (group 2). In additional experiments, kidneys were flushed with saline through the aorta using a small catheter followed by flushing the right kidney with saline containing MitoQ (100 μM) and the left kidney with saline containing DecylTPP (100 μM) (10 ml per kidney). Tissues were recovered and stored in CS+MitoQ (100 μM; right kidney) or CS+DecylTPP (100 μM; left kidney) for 4 h at 4° C. (groups 3 and 4, respectively). […]
MitoSOX Red (Invitrogen) was used to measure mitochondrial superoxide generation during CS. […] Fluorescence was visualized using an Eclipse E800 microscope (Nikon, Melville, N.Y.) with a rhodamine filter using a water immersion objective (60×). Fluorescent images of NRK cells were captured with equal exposure times and quantified by averaging the mean intensity fluorescence of five random cells in three different fields using Nikon N is Elements software. In separate experiments, cells were grown on coverslips, preloaded with MitoSOX Red before treatment (groups 1-4), and evaluated for mitochondrial superoxide generation using a Hitachi F-2500 spectrofluorometer (Hitachi, Tokyo, Japan) equipped with a coverslip holder using two different excitation wavelengths: 396 and 510 nm with the emission measured at 580 nm as previously described. In addition, rat kidneys were monitored for mitochondrial superoxide generation by flushing kidneys with saline through the aorta using a small catheter as described under Cold Storage Ex Vivo Model, followed by saline containing MitoSOX Red (5 μM; 10 ml/kidney) before treatment (groups 1-4). Paraffin sections were analyzed using the rhodamine filter on the Nikon Eclipse 800 microscope (20×).

Series [2] has as its system rat kidneys. Description: Periodic acid-Schiff morphological assessment of renal injury during CS. Particulars: 4 h CS, 100 μM. Here is the method:
as §1, with “C.” for “C. (group 2). In additional experiments, kidneys were flushed with saline through the aorta using a small catheter followed by flushing the right kidney with saline containing MitoQ (100 μM) and the left kidney with saline containing DecylTPP (100 μM) (10 ml per kidney). Tissues were recovered and stored in CS+MitoQ (100 μM; right kidney) or CS+DecylTPP (100 μM; left kidney) for 4 h at 4° C. (groups 3 and 4, respectively).”
Renal sections were assessed for tissue injury using the periodic acid-Schiff reaction. […] Morphological evaluation of tubular dilation, brush border loss, and cellular debris/tubular cast formation were performed blindly with light microscopy and assessed semiquantitatively according to the following scoring system: 0, no changes; 1, mild changes; 2, moderate changes, and 3, severe changes.

A further series relates to NRK cells. Description: LDH cytotoxicity assay, CS and CS plus rewarming. The class given is cell-based. Conditions: 1 μM. Here is the method: (§2) Normal rat kidney proximal tubular cells (NRK-52E; American Type Culture Collection, Manassas, Va.) were maintained in six-well 100 or 150-mm, or 150-mm plates in a humidified incubator gassed with 5% CO2 and 95% air at 37° C. in DMEM (Invitrogen, Carlsbad, Calif.) containing 5% fetal calf serum (FCS). Cells were grown to 60% confluence and divided into four treatment groups: 1) untreated (Untx), 2) CS, 3) CS+MitoQ, and 4) CS+DecylTPP. Untreated cells remained at 37° C. in DMEM containing 5% FCS (group 1). CS was initiated by washing cells with cold PBS (Invitrogen) twice and storing them in UW/Viaspan solution alone (4 h at 4° C.) (group 2), CS+MitoQ (1 μM) (group 3), or CS+DecylTPP (1 μM) (group 4). In separate experiments, cells were exposed to CS plus RW by replacing UW solution alone or UW solution containing MitoQ or DecylTPP with DMEM containing 5% FCS overnight (18 h at 37° C.).
Cell cytotoxicity was determined using the LDH-Cytotoxicity Assay Kit II (Biovision Research Products, Mountain View, Calif.) according to the manufacturer's instructions. Absorbance was measured at 450 nm using a SpectraMax 190 microplate reader and SpectraMax software (Molecular Devices, Sunnyvale, Calif.). Renal cell death was determined using TUNEL staining. Kidney sections were deparaffinized, rehydrated, and exposed to antigen retrieval (20-min incubation at 95° C. with 10 mM sodium citrate buffer, pH 6.0) followed by washing with distilled water and quenching of endogenous peroxidase. Sections were immersed in TdT labeling buffer and then incubated in a humidified chamber with the labeling reaction mix from the TAGS 2 TdT-DAB In Situ Apoptosis Detection kit (Trevigen, Inc., Gaithersburg, Md.) for 1 h at room temperature. The reaction was stopped with TdT stop buffer, and slides were subsequently washed with PBS. Sections were incubated for 10 min with streptavidin-HRP followed by development with diaminobenzidine solution, counterstaining with Mayer's hematoxylin, dehydration, and mounting with Cytoseal-60. The amount of cell death was calculated by averaging the number of cells positive for TUNEL (brown staining) in 10 different fields (cortex and medulla) (20×). All images were taken at equal exposure times (40×oil).

For series [3], the system named is mitochondrial respiratory complex II. Nature of the series: Mitochondrial respiratory complex activity, NRK cell mitochondria after CS. The series is classed as cell-based, rat. Particulars: NRK cells, 4-h CS, 1 μM. Here is the method:
as §2
(§3) NRK cell and rat kidney mitochondria were isolated by centrifugation on a sucrose density gradient. The activity of mitochondrial respiratory complexes I, II, III, or IV were assayed spectrophotometrically using 100 μg of mitochondrial protein at 30° C. as previously described.

Series [4] has as its system mitochondrial respiratory complex I. Described as above. The class given is cell-based, rat. Conditions: NRK cells, 4-h CS, 1 μM. Here is the method:
as §2, §3

Regarding `COC1=C(OC)C(=O)C(CCCCCCCCCC[P+](c2ccccc2)(c2ccccc2)c2ccccc2)=C(C)C1=O` [MitoQ, mitoquinone], the “mitochondrial superoxide production (Mitosox Red staining)” value in the series on rat kidneys [1] (following cold preservation (Example 1)) was “blunted”. Also, the “mitochondrial superoxide generation (MitoSOX Red)” value in the series with rat kidneys [1] (rat kidneys, 4 h CS at 4° C., 100 μM) is recorded as “markedly decreased”. For the same molecule, the “MitoSox Red staining (superoxide)” value in the series on rat kidneys [1] (rat kidneys, cold storage 4 hr UW, 4° C., UW+MitoQ (100 µM), n=3) was “decreases”. Also, the “renal histology / renal injury (periodic acid-Schiff staining)” value in the series with rat kidneys [2] is listed as “improved renal histology significantly”. The “decrease of cell death (LDH cytotoxicity)” value in the series on NRK cells (CS alone) and in the series on NRK cells (CS.RW) was “approximately 2 fold” throughout. In addition, the “complex II inactivation” value in series [3] was “completely prevented”. In series [4], the “complex I inactivation” value was “completely prevented”.
